One block for each molecule: values may come before it. Activity calls are given as the source filed them. The rule behind the calls is not given here.
Tests used:
[1] = target: Mitogen-activated protein kinase 10 (Homo sapiens) (UniProt P53779); experiment: Inhibition of JNK3 at 10 uM by Cherenkov counting in presence of 20 uM ATP
[2] = target: Mitogen-activated protein kinase 9 (Homo sapiens) (UniProt P45984); experiment: Inhibition of JNK2 at 10 uM by Cherenkov counting in presence of 20 uM ATP
Chain of Mitogen-activated protein kinase 9 (Homo sapiens) (P45984 whole entry, looked up, canonical isoform): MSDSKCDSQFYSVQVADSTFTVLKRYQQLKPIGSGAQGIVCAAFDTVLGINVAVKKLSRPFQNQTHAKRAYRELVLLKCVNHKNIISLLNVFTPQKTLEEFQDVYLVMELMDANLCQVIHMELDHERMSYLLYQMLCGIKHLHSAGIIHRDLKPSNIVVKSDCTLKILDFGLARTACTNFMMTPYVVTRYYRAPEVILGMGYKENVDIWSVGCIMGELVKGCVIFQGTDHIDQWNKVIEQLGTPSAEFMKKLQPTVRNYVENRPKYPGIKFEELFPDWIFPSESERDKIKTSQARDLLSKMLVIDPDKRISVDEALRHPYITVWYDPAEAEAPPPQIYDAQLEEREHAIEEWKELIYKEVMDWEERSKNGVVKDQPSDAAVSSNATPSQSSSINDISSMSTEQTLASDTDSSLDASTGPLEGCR

[3] = target: T1, Casein kinase I isoform delta (Homo sapiens, UniProt P48730); experiment: Inhibition of CK1delta by Cherenkov counting in presence of 20 uM ATP
Target sequence in this assay (P48730 whole entry, the tested form may be a part, canonical isoform): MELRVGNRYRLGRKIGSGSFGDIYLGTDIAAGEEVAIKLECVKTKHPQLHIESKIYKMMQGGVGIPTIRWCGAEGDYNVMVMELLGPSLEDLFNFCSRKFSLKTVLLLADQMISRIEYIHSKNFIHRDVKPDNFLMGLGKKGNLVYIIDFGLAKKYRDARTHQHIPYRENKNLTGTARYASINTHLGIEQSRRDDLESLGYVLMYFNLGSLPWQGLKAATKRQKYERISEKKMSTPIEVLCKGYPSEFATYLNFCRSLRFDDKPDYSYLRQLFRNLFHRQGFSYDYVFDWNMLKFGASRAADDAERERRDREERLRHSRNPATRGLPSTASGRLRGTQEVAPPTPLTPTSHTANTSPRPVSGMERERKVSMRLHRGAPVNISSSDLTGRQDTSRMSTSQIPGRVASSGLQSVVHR

[4] = target: Casein kinase I isoform delta (Rattus norvegicus) (UniProt Q06486); experiment: Inhibition of GST-fused rat CK1delta at 10 nM by Cherenkov counting in presence of 20 uM ATP
Chain of Casein kinase I isoform delta (Rattus norvegicus) (Q06486 whole entry, looked up, the tested form may be a part, canonical isoform): as the sequence (P48730 whole entry, the tested form may be a part, canonical isoform) above, with I381V counted along it

[5] = Cell cycle arrest in human AC1-M88 cells assessed as accumulation at G2 phase at 0.26 uM after 48 hrs by propidium iodide staining-based FACS analysis; format: functional
[6] = target: T1, Casein kinase I isoform delta; experiment: Inhibition of recombinant CK1delta kinase domain at 10 nM by ATP competitive binding assay
Target sequence in this assay (P48730 whole entry, looked up, the tested form may be a part, canonical isoform): as the sequence (P48730 whole entry, the tested form may be a part, canonical isoform) above

[7] = target: T1, Casein kinase I isoform delta; experiment: Inhibition of recombinant CK1delta kinase domain at 10 nM by ATP competitive binding assay
Target sequence in this assay (P48730 whole entry, looked up, the tested form may be a part, canonical isoform): as the sequence (P48730 whole entry, the tested form may be a part, canonical isoform) above

[8] = tested on: Casein kinase I isoform delta (Rattus norvegicus), Q06486 [M82F]; experiment: Inhibition of GST-fused rat CK1delta M82F mutant at 10 nM by Cherenkov counting in presence of 20 uM ATP
Chain of Casein kinase I isoform delta (Rattus norvegicus), Q06486 [M82F] (Q06486 whole entry M82F, the tested form may be a part, canonical isoform): as the sequence (P48730 whole entry, the tested form may be a part, canonical isoform) above, with M82F, I381V counted along it

[9] = Cell cycle arrest in human AC1-M88 cells assessed as accumulation at S phase at 0.26 uM after 48 hrs by propidium iodide staining-based FACS analysis; format: functional
[10] = Cell cycle arrest in human AC1-M88 cells assessed as accumulation at subG1 phase at 0.38 uM after 48 hrs by propidium iodide staining-based FACS analysis; format: functional
[11] = Cell cycle arrest in human AC1-M88 cells assessed as accumulation at S phase at 0.38 uM after 48 hrs by propidium iodide staining-based FACS analysis; format: functional
[12] = Cell cycle arrest in human AC1-M88 cells assessed as accumulation at G2 phase at 0.38 uM after 48 hrs by propidium iodide staining-based FACS analysis; format: functional
[13] = Cell cycle arrest in human AC1-M88 cells assessed as accumulation at G1 phase at 0.38 uM after 48 hrs by propidium iodide staining-based FACS analysis; format: functional
[14] = tested on: Casein kinase I isoform delta (Rattus norvegicus), Q06486 [M82F]; conditions: 5 nM
[15] = target: Casein kinase I isoform delta (Rattus norvegicus) (UniProt Q06486); conditions: 5 nM
[16] = target: T1, Casein kinase I isoform delta; experiment: Inhibition of recombinant CK1delta kinase domain at 5 nM by ATP competitive binding assay
Target sequence in this assay (P48730 whole entry, looked up, the tested form may be a part, canonical isoform): as the sequence (P48730 whole entry, the tested form may be a part, canonical isoform) above

Chain of Mitogen-activated protein kinase 10 (Homo sapiens) (P53779 whole entry): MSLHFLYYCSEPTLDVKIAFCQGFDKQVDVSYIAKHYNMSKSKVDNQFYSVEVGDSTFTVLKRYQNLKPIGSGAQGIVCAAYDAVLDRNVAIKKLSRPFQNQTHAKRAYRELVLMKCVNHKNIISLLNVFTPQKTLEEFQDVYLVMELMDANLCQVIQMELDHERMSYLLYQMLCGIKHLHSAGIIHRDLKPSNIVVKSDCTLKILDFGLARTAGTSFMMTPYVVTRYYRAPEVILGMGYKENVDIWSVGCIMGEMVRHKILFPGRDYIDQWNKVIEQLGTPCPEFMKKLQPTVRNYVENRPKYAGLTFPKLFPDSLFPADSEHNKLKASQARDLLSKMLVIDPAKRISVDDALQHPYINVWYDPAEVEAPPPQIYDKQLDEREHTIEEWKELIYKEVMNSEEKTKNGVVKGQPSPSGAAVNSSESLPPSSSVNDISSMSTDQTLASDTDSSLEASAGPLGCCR

inhibition [1]: 72%
inhibition [2]: 87%
IC50 [3]: 230 nM
Compound: CC(C)c1onc(-c2ccc(F)cc2)c1-c1ccncc1

inhibition [4]: Active
inhibition [6]: 10%
inhibition [7]: 10%
inhibition [8]: inactive
Compound: COc1ccc(/C=C/C(=O)Nc2cc(-c3[nH]c([S+](C)[O-])nc3-c3ccc(F)cc3)ccn2)c(OC)c1 (stereo unspecified)
Activity [5]: 5.32%
Activity [9]: 3.95%

inhibition [14]: inactive
inhibition [15]: Active
inhibition [16]: 18%
Compound: COc1ccc(/C=C/C(=O)Nc2cc(-c3[nH]c(SC)nc3-c3ccc(F)cc3)ccn2)c(OC)c1
Activity [10]: 87.1%
Activity [11]: 2.41%
Activity [12]: 3.08%
Activity [13]: 6.3%

From ChEMBL document CHEMBL1155278, “3,4-Diaryl-isoxazoles and -imidazoles as potent dual inhibitors of p38alpha mitogen activated protein kinase and casein kinase 1delta” (J Med Chem, 2009)
